Like-named read-outs stand apart in the source and are kept apart here.
Biological target: T1, PDGF-Ra (Homo sapiens, UniProt P16234)
T1 construct: host or cells: G-292 human osteosarcoma cells
Assay: Inhibitory activity against PDGF-Ra phosphorylation by PDGF-AA stimulation using G292
Format: cell-based
Conditions: for IC50: > means inhibition at indicated concentration not more than 50%, < and << not less than 50%, read-out: PDGF (E) IC50; for inhibition at 0.1 µM: G292, at 100 nM, read-out: PDGF (E) inhibition (%) at 100 nM
Description: Measurement of Inhibitory Activity Against PDGF-Ra Phosphorylation by PDGF-AA Stimulation Using G292
G-292 human osteosarcoma cells (Dainippon Pharmaceutical Co. Ltd.) were cultured in a DMEM medium (Dainippon Pharmaceutical Co. Ltd.) containing 10% FBS within an incubator containing 5% carbon dioxide until 80% confluent, and the cells were planted at 3×10^4 cells per well in 96-well flat-bottom plates in the same medium containing 0.1% FBS. After cultivation at 37° C. overnight, a solution of a test compound in dimethyl sulfoxide was added to each well, and a reaction was allowed to proceed at 37° C. for one hr.
After the reaction of the test compound, PDGF-AA (Upstate) was added to 50 ng/ml, and the cells were stimulated at 37° C. for 5 min. Thereafter, the cells were solubilized and shaken at room temperature for 20 min.
This solubilized cell solution was transferred to a 96-well plate coated with aniti-phosphotyrosine antibody PY-20, and a reaction was allowed to proceed at 4° C. overnight. Anti-PDGF-Ra (c-20) (Santa Cruz) was added as a primary antibody, and a reaction was allowed to proceed for one hr. GAR (Anti-rabbit Ig, horseradish peroxidase, Amersham) was then added as a secondary antibody, and a reaction was allowed to proceed for one hr. Color development was carried out using a color development kit for peroxidase (Sumitomo Bakelite Co., Ltd.), and the absorbance was measured at 450 nm.

[1] = figure within parentheses in >100( )
[2] = figure in parentheses in >100( )

T1 sequence (P16234 24-1089): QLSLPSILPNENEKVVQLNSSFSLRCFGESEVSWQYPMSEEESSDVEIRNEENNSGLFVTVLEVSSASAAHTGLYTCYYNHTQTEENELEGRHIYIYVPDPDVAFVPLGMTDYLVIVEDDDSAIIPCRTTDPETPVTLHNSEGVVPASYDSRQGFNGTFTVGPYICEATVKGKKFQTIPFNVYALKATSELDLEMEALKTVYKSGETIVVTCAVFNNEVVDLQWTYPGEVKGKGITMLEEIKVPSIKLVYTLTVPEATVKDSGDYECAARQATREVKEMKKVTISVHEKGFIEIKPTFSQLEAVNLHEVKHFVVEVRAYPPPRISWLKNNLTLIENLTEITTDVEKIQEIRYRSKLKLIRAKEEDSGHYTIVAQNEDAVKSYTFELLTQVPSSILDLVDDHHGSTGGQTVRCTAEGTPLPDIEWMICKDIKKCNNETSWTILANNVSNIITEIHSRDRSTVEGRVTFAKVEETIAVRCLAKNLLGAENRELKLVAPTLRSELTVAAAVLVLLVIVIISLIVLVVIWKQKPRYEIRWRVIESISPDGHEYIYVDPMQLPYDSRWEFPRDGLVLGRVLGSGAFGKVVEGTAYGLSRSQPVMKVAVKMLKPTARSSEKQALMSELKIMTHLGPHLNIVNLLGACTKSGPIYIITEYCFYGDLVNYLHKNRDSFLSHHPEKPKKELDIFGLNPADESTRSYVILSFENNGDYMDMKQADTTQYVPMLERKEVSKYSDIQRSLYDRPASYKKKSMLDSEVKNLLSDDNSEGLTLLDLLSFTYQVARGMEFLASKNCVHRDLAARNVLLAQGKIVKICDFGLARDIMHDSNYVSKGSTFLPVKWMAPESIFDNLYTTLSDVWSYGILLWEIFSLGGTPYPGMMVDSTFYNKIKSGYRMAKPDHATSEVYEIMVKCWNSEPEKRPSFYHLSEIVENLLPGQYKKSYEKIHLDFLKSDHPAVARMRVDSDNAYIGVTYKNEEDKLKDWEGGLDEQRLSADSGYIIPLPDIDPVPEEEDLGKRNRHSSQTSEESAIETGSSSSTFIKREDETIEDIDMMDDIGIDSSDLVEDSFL

| Compound | IC50 [nM] | further results |
| --- | --- | --- |
| COc1cc2ncnc(Oc3ccc(NC(=S)NC(=O)c4cccc(F)c4)cc3)c2cc1OC [Example 1164, N-{4-[(6,7-Dimethoxy-4-quinazolinyl)oxy]phenyl}-N′-(3-fluorobenzoyl)thiourea] | < 10 | – |
| 1-[3-(Trifluoromethoxy)phenyl]ethyl N-{4-[(6,7-dimethoxy-4-quinolyl)oxy]-2,3-dimethylphenyl}carbamate [Example 181] | – | IC50 (Pharmacological Test Example 1): > 100 nM |
| CCN(CC)CCCNC(=S)Nc1cc(C)c(Oc2ccnc3cc(OC)c(OC)cc23)cc1C [Example 551, N-{4-[(6,7-Dimethoxy-4-quinolyl)oxy]-2,5-dimethylphenyl}-N′-(3-diethylaminopropyl)thiourea] | > 100 | inhibition at 0.1 µM [1]: 19% |
| COc1cc2nccc(Oc3ccc(NC(=S)NC(=O)Cc4ccc(CBr)cc4)cc3)c2cc1OC [Example 1169, N-{2-[4-(Bromomethyl)phenyl]acetyl}-N′-{4-[(6,7-dimethoxy-4-quinolyl)oxy]phenyl}thiourea] | 37 | – |
| COc1cc2ncnc(Oc3ccc(NC(=S)NC(=O)c4ccccc4F)cc3)c2cc1OC [Example 1161, N-{4-[(6,7-Dimethoxy-4-quinazolinyl)oxy]phenyl}-N′-(2-fluorobenzoyl)thiourea] | < 10 | – |
| COc1cc2nccc(Oc3ccc(NC(=S)NC(=O)c4ccc(Cl)cc4)c(Cl)c3)c2cc1OC [Example 1174, N-(4-Chlorobenzoyl)-N′-{2-chloro-4-[(6,7-dimethoxy-4-quinolyl)oxy]phenyl}thiourea] | > 100 | – |
| COc1cc2nccc(Oc3cc(C)c(NC(=O)Oc4cccc(C#N)c4)cc3C)c2cc1OC [Example 458, 3-Cyanophenyl N-{4-[(6,7-dimethoxy-4-quinolyl)oxy]-2,5-dimethylphenyl}carbamate] | > 100 | inhibition at 0.1 µM [1]: 18% |
| COc1cc2ncnc(Oc3ccc(OCC(=O)O)cc3)c2cc1OC [Example 775, 2-{4-[(6,7-Dimethoxy-4-quinazolinyl)oxy]phenoxy}acetic acid] | > 100 | inhibition at 0.1 µM [1]: 22% |
| COc1cc2nccc(Oc3ccc(NC(=O)OCCN(C)C)c(C)c3C)c2cc1OC [Example 189, 2-(Dimethylamino)ethyl N-{4-[(6,7-dimethoxy-4-quinolyl)oxy]-2,3-dimethylphenyl}carbamate] | – | IC50 (Pharmacological Test Example 1): 57 nM |
| CCN(C(=O)OCc1ccccc1Cl)c1ccc(Oc2ncnc3cc(OC)c(OC)cc23)cc1Cl [Example 487, 2-Chlorobenzyl N-{2-chloro-4-[(6,7-dimethoxy-4-quinazolinyl)oxy]phenyl}-N-ethylcarbamate] | > 100 | inhibition at 0.1 µM [1]: 31% |
| COc1cc2nccc(Oc3ccc(NC(=S)NC(=O)[C@H](C)c4ccccc4)cc3Cl)c2cc1OC [Example 744, N-{3-Chloro-4-[(6,7-dimethoxy-4-quinolyl)oxy]phenyl}-N′-[(2R)-2-phenylpropanoyl]thiourea] | 40 | – |
| CCN(C(=S)NC(=O)C1CC1c1ccccc1)c1ccc(Oc2ccnc3cc(OC)c(OC)cc23)cc1 (stereo not drawn) [Example 1143, N-{4-[(6,7-Dimethoxy-4-quinolyl)oxy]phenyl}-N-ethyl-N′-[(2-phenylcyclopropyl)carbonyl]thiourea] | > 100 | inhibition at 0.1 µM [2]: 32% |
| COc1cc2nccc(Oc3ccc(NC(=S)NC(=O)c4cc(C)cc(C)c4)cc3)c2cc1OC [Example 1129, N-{4-[(6,7-Dimethoxy-4-quinolyl)oxy]phenyl}-N′-(3 5-dimethylbenzoyl)thiourea] | > 100 | inhibition at 0.1 µM [2]: 48% |
| COc1cc2nccc(Oc3ccc(NC(=O)Oc4cccc(C#N)c4)cc3)c2cc1OC [Example 457, 3-Cyanophenyl N-{4-[(6,7-dimethoxy-4-quinolyl)oxy]phenyl}carbamate] | > 100 | inhibition at 0.1 µM [1]: 29% |
| CCN(CC)C(C)CNC(=S)Nc1ccc(Oc2ccnc3cc(OC)c(OC)cc23)cc1 (stereo not drawn) [Example 588, N-{4-[(6,7-Dimethoxy-4-quinolyl)oxy]phenyl}-N′-(2-diethylaminopropyl)thiourea] | 36 | – |
| COc1cc2nccc(Oc3ccc(NC(=S)NC(=O)Cc4cccs4)cc3)c2cc1OC [Example 1171, N-{4-[(6,7-Dimethoxy-4-quinolyl)oxy]phenyl}-N′-[2-(2-thienyl)acetyl]thiourea] | 13 | – |
| COc1cc2nccc(Oc3cc(C)c(NC(=O)OCCOc4ccccc4F)cc3C)c2cc1OC [Example 205, 2-(2-Fluorophenoxy)ethyl N-{4-[(6,7-dimethoxy-4-quinolyl)oxy]-2,5-dimethylphenyl}carbamate] | – | IC50 (Pharmacological Test Example 1): 78 nM |

| Compound | IC50 [nM] | further results |
| --- | --- | --- |
| N-{4-[(6,7-Dimethoxy-4-quinolyl)oxy]-2,5-dimethylphenyl}-N′-(N-cyclohexylamino)thiourea [Example 523] | > 100 | – |
| CCCCOc1ccc(C(=O)NC(=S)Nc2ccc(Oc3ccnc4cc(OC)c(OC)cc34)c(Cl)c2)cc1 [Example 752, N-(4-Butoxybenzoyl)-N′-{3-chloro-4-[(6,7-dimethoxy-4-quinolyl)oxy]phenyl}thiourea] | > 100 | inhibition at 0.1 µM [1]: 37% |
| COc1cc2nccc(Oc3ccc(NC(=S)NC(=O)c4ccc(C)cc4C)cc3Cl)c2cc1OC [Example 1016, N-{3-Chloro-4-[(6,7-dimethoxy-4-quinolyl)oxy]phenyl}-N′-(2,4-dimethylbenzoyl)thiourea] | 48 | – |
| CCC(C(=O)NC(=S)Nc1ccc(Oc2ccnc3cc(OC)c(OC)cc23)c(Cl)c1)c1ccccc1 (stereo not drawn) [Example 748, N-{3-Chloro-4-[(6,7-dimethoxy-4-quinolyl)oxy]phenyl}-N′-(2-phenylbutanoyl)thiourea] | 85 | – |
| CCCC(CCC)OC(=O)N(C)c1ccc(Oc2ncnc3cc(OC)c(OC)cc23)cc1 [Example 493, 1-Propylbutyl N-{4-[(6,7-dimethoxy-4-quinazolinyl)oxy]phenyl}-N-methylcarbamate] | 39 | – |
| COc1cc2nccc(Oc3ccc(NC(=S)NC(=O)c4cccnc4)cc3)c2cc1OC [Example 1152, N-{4-[(6,7-Dimethoxy-4-quinolyl)oxy]phenyl}-N′-(3-pyridylcarbonyl)thiourea] | < 10 | – |
| COc1cc2ncnc(Oc3ccc(NC(=S)NC(=O)c4ccccc4C(F)(F)F)cc3)c2cc1OC [Example 1157, N-{4-[(6,7-Dimethoxy-4-quinazolinyl)oxy]phenyl}-N′-[2-(trifluoromethyl)benzoyl]thiourea] | < 10 | – |
| COc1cc2nccc(Oc3ccc(NC(=S)NC(=O)c4ccccc4F)cc3F)c2cc1OC [Example 1160, N-{4-[(6,7-Dimethoxy-4-quinolyl)oxy]-3-fluorophenyl}-N′-(2-fluorobenzoyl)thiourea] | < 10 | – |
| COc1cc2ncnc(Oc3ccc(NC(=O)OCC4CC4)c(Cl)c3)c2cc1OC [Example 384, Cyclopropylmethyl N-{2-chloro-4-[(6,7-dimethoxy-4-quinazolinyl)oxy]phenyl}carbamate] | – | inhibition at 0.1 µM [2]: 37%; IC50 (Pharmacological Test Example 1): > 100 nM |
| COc1cc2ncnc(Oc3ccc(NC(=O)OCC4CCC4)c(Cl)c3)c2cc1OC [Example 389, Cyclobutylmethyl N-{2-chloro-4-[(6,7-dimethoxy-4-quinazolinyl)oxy]phenyl}carbamate] | – | IC50 (Pharmacological Test Example 1): 51 nM |
| COc1cc2nccc(Oc3ccc(NC(=S)NC(=O)c4cccc(Br)c4)c(Cl)c3)c2cc1OC [Example 1165, N-(3-Bromobenzoyl)-N′-{2-chloro-4-[(6,7-dimethoxy-4-quinolyl)oxy]phenyl}thiourea] | > 100 | – |
| COc1cc2nccc(Oc3ccc(NC(=S)NC(=O)C(C)(C)Oc4ccc(Cl)cc4)cc3)c2cc1OC [Example 757, N-[2-(4-Chlorophenoxy)-2-methylpropanoyl]-N′-{4-[(6,7-dimethoxy-4-quinolyl)oxy]phenyl}thiourea] | > 100 | inhibition at 0.1 µM [1]: 45% |
| COc1cc2nccc(Oc3ccc(NC(=O)OC(C#N)c4ccccc4)cc3)c2cc1OC (stereo not drawn) [Example 453, Cyano(phenyl)methyl N-{4-[(6,7-dimethoxy-4-quinolyl)oxy]phenyl}carbamate] | > 100 | inhibition at 0.1 µM [1]: 1% |
| COc1cc2nccc(Oc3ccc(NC(=S)NC(=O)C(C)(C)C)cc3Cl)c2cc1OC [Example 1187, N-{3-Chloro-4-[(6,7-dimethoxy-4-quinolyl)oxy]phenyl}-N′-(2,2-dimethylpropanoyl)thiourea] | 24 | – |
| COc1cc2ncnc(Oc3ccc(NC(=O)OC(C)c4ccc(F)cc4)c(Cl)c3)c2cc1OC (stereo not drawn) [Example 106, 1-(4-Fluorophenyl)ethyl N-{2-chloro-4-[(6,7-dimethoxy-4-quinazolinyl)oxy]phenyl}carbamate] | – | IC50 (Pharmacological Test Example 1): 12 nM |
| COc1cc2ncnc(Oc3ccc(O)cc3)c2cc1OC [Example 773, 4-[(6,7-Dimethoxy-4-quinazolinyl)oxy]phenol] | > 100 | – |
| CCOC(=O)CCCC(=O)NC(=S)Nc1ccc(Oc2ncnc3cc(OC)c(OC)cc23)cc1 [Example 1177, Ethyl 5-[({4-[(6,7-dimethoxy-4-quinazolinyl)oxy]anilino}carbothioyl)amino]-5-oxopentanoate] | 17 | – |
